The values that follow come from patent publication US20160075667A1, “COMPOSITIONS AND METHODS FOR CHEMICAL EXCHANGE SATURATION TRANSFER (CEST) MAGNETIC RESONANCE IMAGING (MRI)” (The Johns Hopkins University, priority 2013, published 2016).

This assay in a line: Phantom calibration: CEST MTRasym spectra of I45DC-(Glu)2 in PBS. It is filed as physicochemical. The settings on record: pH 5.4 to 7.5. As to the method:
I45DC-(Glu)2 was dissolved in PBS with conc. of 50 mM, 25 mM, 12 mM and 6.25 mM and pH from 5.4 to 7.5.
Images were taken on Bruker 11.7T scanners, using a RARE sequence with CW saturation pulse of B1=5.9 uT, Tsat=3 s. For phantoms, saturation frequency incremented every 0.3 ppm from −15 to 15 ppm with TR/TE=6000 ms/17 ms, matrix size=64×48. For in vivo, an axial slice across both kidney carlyx was chosen with thickness of 1.5 mm CEST images with saturation frequencies of [±7.8 ppm, ±7.5 ppm, ±7.2 ppm] and [±4.8 ppm, ±4.5 ppm, ±4.2 ppm] for pH reference were acquired repeatedly every 10 min pre- and post-injection. Image parameters are similar as for phantom except for TR/TE=5 s/15 ms, and CEST contrast was quantified by
MTRasym=(S−Δω−S+Δω)/S−Δω.
CEST MTRasym spectra of I45DC-(Glu)2 (FIG. 5A) show 2 broad peaks centered at 7.5 ppm and 2.4 ppm, with the 7.5 ppm peak increasing as pH increases, while the 2.5 ppm-5 ppm part remains relatively constant. […] The linearity of the ratio using saturation B1=5.9 uT is better than B1=3.6 uT partially due to a relative fast exchange rate of the heterocyclic NH (kex=˜4000).

As for `O=C[C@H](CCC(=O)O)NNC(=O)c1nc[nH]c1C(=O)NN[C@H](C=O)CCC(=O)O` [I45DC-(Glu)2, 4,5-bis[(Glu)carbonyl]-1H-imidazole], the “exchange rate of the heterocyclic NH (kex)” value is on record as approximately 4000. The “ratio of the 7.5 ppm contrast to contrast at 4.8 ppm” value (6.25-50 mM) is on record as “dependent on pH”.
